Experimental data from US9090668B2, “Process for synthesizing cyclic peptide compound” (THE UNIVERSITY OF TOKYO, priority 2007, dated 2015).
*1 amine or outer side, *2 acyl side, *3 side chain or, on linkers, in order; H or OH if unused. Where a SMILES comes first, the peptide text is derived from it. Bridges are numbered along the chain shown (N, C = ends). [ ]: non-standard residue; d: D form. The star is where a group is joined. hMet = CSCCC[C@H](N)C(=O)O; Orn = NCCC[C@H](N)C(=O)O; Dab = NCC[C@H](N)C(=O)O; X1 = O=C(C[*:2])[*:1]; For = O=C*

Experiments:
proteinase K = proteinase K (Parengyodontium album, UniProt P06873); assay: Protease resistance of peptides against proteinase K, analysed by MALDI-MS; assay type: in vitro ADME; settings: 5 μg/ml proteinase K, 37° C., 1 hour
Method: Translationally synthesized peptides and purchased Urotensin II peptides were reacted in 5 μg/ml of a proteinase K solution at 37° C. for 1 hour in the presence of, or in the absence of, 1 mM DTT.

Urotensin II receptor = molecular target: T1, Urotensin II receptor (Homo sapiens, UniProt Q9UKP6); assay: Calcium mobilization measurement in HEK-UTR cells (Fluo-4-AM fluorescence); assay type: cell-based; settings: HEK-UTR cells (HEK cells expressing an Urotensin II receptor)
T1 construct: expressed in transfected cells; host or cells: HEK cells (HEK-UTR)
T1 sequence (Q9UKP6 1-389): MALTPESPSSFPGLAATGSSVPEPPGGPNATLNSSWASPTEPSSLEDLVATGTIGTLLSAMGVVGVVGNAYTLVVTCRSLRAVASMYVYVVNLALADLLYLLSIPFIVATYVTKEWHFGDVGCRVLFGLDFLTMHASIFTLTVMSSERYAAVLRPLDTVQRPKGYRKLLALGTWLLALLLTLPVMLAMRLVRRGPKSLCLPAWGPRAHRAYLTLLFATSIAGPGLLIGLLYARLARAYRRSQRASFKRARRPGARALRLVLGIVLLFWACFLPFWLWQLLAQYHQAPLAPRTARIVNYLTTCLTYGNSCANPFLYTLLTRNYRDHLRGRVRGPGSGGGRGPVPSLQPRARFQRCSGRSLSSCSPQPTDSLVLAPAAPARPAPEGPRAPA
Method: FIG. 10 illustrates calcium mobilization in cells by addition of peptides using a fluorescent reagent. 2×10^5 HEK-UTR cells (HEK cells expressing an Urotensin II receptor) were seeded into a 96 well plate. After 12-16 hours, the cells were incubated in 1 μM Fluo-4-AM (Dojindo Laboratories) for 1 hour. After the incubation was completed, the fluorescent reagent was removed, and 90 μL of an assay buffer (Hanks Balanced Salts Solution (HBSS), 10 mM HEPES, 200 μM of CaCl2, 0.1% BSA, and 2.5 mM probenecid) was added. Then, 10 μL of peptides dissolved in an assay buffer was added, and changes in an intensity of fluorescent light were measured by a microplate reader. The peptides were prepared by purifying the translation product by Zip-tip (Millipore) and distilling off the elute under reduced pressure.

proteinase K, sequence (P06873 106-384, species assumed): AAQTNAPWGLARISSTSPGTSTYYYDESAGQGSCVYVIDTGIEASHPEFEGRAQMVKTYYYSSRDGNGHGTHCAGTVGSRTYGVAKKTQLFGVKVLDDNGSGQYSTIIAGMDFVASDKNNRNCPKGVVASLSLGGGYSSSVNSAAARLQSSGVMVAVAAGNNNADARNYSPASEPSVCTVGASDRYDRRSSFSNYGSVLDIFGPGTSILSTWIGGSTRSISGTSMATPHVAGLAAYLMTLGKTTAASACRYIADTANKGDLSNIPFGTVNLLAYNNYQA

| SMILES | degradation by proteinase K (proteinase K) | degradation by proteinase K after change into linear form by DTT (proteinase K; in the presence of 1 mM DTT) | calcium mobilization in cells (change in fluorescence intensity) (Urotensin II receptor) |
| --- | --- | --- | --- |
| CC(C)[C@H](NC(=O)[C@@H]1CSSC[C@H](NC(=O)[C@H](CC(=O)O)NC(=O)[C@@H]2CCCN2C(=O)[C@@H](NC(=O)[C@@H](N)CCC(=O)O)[C@@H](C)O)C(=O)N[C@@H](Cc2ccccc2)C(=O)N[C@@H](Cc2c[nH]c3ccccc23)C(=O)N[C@@H](CCCCN)C(=O)N[C@@H](Cc2ccc(O)cc2)C(=O)N1)C(=O)O [Urotensin II] | not degraded | decomposed | – |
| CSCCC[C@H](NC=O)C(=O)N1CCC[C@H]1C(=O)N[C@@H](CC(=O)O)C(=O)N[C@H]1CCNC(=O)CSC[C@@H](C(=O)N[C@H](C(=O)O)C(C)C)NC(=O)[C@H](Cc2ccc(O)cc2)NC(=O)[C@H](CCCN)NC(=O)[C@H](Cc2c[nH]c3ccccc23)NC(=O)[C@H](Cc2ccccc2)NC1=O [YS9] (For-[hMet]PD[Dab]FW[Orn]YCV-OH; linker 4-9 via X1) | not degraded | – | calcium mobilization in the cells was observed |
| CSCC[C@H](NC=O)C(=O)N1CCC[C@H]1C(=O)N[C@@H](CC(=O)O)C(=O)N[C@@H](CC(C)C)C(=O)N[C@@H](Cc1ccccc1)C(=O)N[C@@H](Cc1c[nH]c2ccccc12)C(=O)N[C@@H](CCCCN)C(=O)N[C@@H](Cc1ccc(O)cc1)C(=O)N[C@@H](CS)C(=O)N[C@H](C(=O)O)C(C)C [YS10] (For-MPDLFWKYCV-OH; N-terminus and C-terminus assumed) | degraded | – | – |
